From patent US6780994B2, “Phthalimido arylpiperazines useful in the treatment of benign prostatic hyperplasia” (Ortho-McNeil Pharmaceutical, Inc., priority 1998, dated 2004)

Legend:
α1b-AR = biological target: T1, α1b-AR (Homo sapiens, UniProt P35368); test: radioligand ([125I]-HEAT) receptor binding assay, COS cell membranes expressing cloned receptor; details: [125I]-HEAT 50 pM, 1 hour room temperature
T1 construct: expressed in transfected cells; host or cells: COS cells, pcDNA3 vector, transient DEAE-dextran transfection
T1 sequence (P35368 1-520): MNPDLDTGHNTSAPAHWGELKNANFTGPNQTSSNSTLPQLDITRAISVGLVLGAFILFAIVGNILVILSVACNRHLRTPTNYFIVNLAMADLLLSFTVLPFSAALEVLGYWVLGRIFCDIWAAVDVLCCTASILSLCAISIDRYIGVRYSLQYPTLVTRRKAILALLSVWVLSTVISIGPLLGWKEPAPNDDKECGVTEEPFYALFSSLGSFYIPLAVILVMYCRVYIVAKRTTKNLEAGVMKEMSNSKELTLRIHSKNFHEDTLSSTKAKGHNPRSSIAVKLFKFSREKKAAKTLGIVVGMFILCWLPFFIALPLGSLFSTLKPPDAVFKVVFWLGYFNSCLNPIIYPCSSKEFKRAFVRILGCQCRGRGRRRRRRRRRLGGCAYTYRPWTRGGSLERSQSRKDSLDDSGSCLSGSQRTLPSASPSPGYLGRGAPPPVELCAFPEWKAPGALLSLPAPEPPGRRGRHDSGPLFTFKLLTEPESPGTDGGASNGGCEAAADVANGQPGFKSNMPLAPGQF
Source text: (§1) The first assay tested the ability of compounds of Formula I to bind to membrane bound receptors α1a-AR, α1b-AR and α1d-AR.
(§2) The DNA sequences of the three cloned human α1-AR subtypes have been published. […] We used published DNA sequence information to design primers for use in RT-PCR amplification of each subtype to obtain cloned cDNAs. Human poly A+ RNA was obtained from commercially available sources and included hippocampus and prostate samples, sources which have been cited in the literature. For the primary screen a radioligand binding assay was used which employed membrane preparations from cells expressing the individual cloned receptor cDNAs. Radiolabeled ligands with binding activity on all three subtypes (non-selective) are commercially available ([125I]-HEAT, [3H]-prazosin). Each α1 receptor subtype was cloned from poly A+ RNA by the standard method of reverse transcription-polymerase chain reaction (RT-PCR). The following sources of polyA+ RNA were used for the cloning of the α1 receptor subtypes: α1a-AR, human hippocampus and prostate, α1b-AR, human hippocampus, α1d-AR, human hippocampus. The resulting cDNAs were cloned into the pcDNA3 mammalian expression vector (Invitrogen Corp., San Diego Calif.). Each DNA was sequenced for verification and to detect any possible mutations introduced during the amplification process. Any deviation in sequence from the published consensus for each receptor subtype was corrected by site-directed mutagenesis.
(§3) The three α1-AR subtypes (a, b, d) were transfected into COS cells using a standard DEAE-dextran procedure with a chloroquine shock. In this procedure, each tissue culture dish (100 mm) was inoculated with 3.5×10^6 cells and transfected with 10 μg of DNA. Approximately 72 hours post-transfection, the cells were harvested and COS membranes were prepared. Transfected COS cells from 25 plates (100 mm) were scraped and suspended in 15 mL of TE buffer (50 mM Tris-HCl, 5 mM EDTA, pH 7.4). The suspension was disrupted with a homogenizer. It was then centrifuged at 1000× g for 10 minutes at 4° C. The supernatant was centrifuged at 34,500× g for 20 minutes at 4° C. The pellet was resuspended in 5 mL TNE buffer (50 mM Tris-HCl, 5 mM EDTA, 150 mM NaCl, pH 7.4). The resulting membrane preparation was aliquoted and stored at −70° C. The protein concentration was determined following membrane solubilization with TritonX-100.
(§4) The ability of each compound to bind to each of the α1-AR subtypes was assessed in a receptor binding assay. [125I]-HEAT, a non-selective α1-AR ligand, was used as the radiolabeled ligand. Each well of a 96-well plate received: 140 μL TNE, […] [125I]-HEAT diluted in TNE (50,000 cpm; final concentration 50 pM), 10 μL test compound diluted in DMSO (final concentration 1 pM-10 μM), […] COS cell membrane preparation expressing one of the three α1-AR subtypes (0.05-0.2 mg membrane protein). The plate was incubated for 1 hour at room temperature and the reaction mixtures were filtered through a Packard GF/C Unifilter filter plate. The filter plate was dried for 1 hour in a vacuum oven. Scintillation fluid ([…]) was added to each well, and the filter plate was counted in a Packard Topcount scintillation counter. Data was analyzed using GraphPad Prism software.
(§5) Tables A through D list the IC50 values expressed in nanomolar concentration for select compounds of the invention in all receptor subtypes.

α1d-AR = biological target: T2, α1d-AR (Homo sapiens, UniProt P25100); test: as above; details: [125I]-HEAT 50 pM, 1 hour room temperature
T2 construct: expressed in transfected cells; host or cells: COS cells, pcDNA3 vector, transient DEAE-dextran transfection
T2 sequence (P25100 1-572): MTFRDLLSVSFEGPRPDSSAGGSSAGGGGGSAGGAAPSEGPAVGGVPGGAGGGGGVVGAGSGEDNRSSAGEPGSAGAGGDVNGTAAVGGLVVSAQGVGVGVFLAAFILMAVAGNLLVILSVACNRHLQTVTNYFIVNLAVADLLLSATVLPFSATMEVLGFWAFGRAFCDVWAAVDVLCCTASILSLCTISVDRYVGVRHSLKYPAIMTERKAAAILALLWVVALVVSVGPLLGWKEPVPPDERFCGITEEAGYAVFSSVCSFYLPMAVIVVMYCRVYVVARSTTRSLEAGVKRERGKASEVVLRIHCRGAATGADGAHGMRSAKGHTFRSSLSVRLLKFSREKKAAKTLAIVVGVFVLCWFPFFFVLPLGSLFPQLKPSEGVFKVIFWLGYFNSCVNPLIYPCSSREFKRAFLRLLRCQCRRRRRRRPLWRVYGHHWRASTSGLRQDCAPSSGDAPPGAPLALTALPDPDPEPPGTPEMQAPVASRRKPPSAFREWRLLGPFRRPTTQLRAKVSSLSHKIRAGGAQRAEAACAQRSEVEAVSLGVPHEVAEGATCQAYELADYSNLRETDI
Source text: as §1, §2, §3, §4, §5

IC50 (α1b-AR): > 2000 nM
IC50 (α1d-AR): 51 nM
Compound: COc1ccc(N2C(=O)c3ccc(C(=O)NCC(O)CN4CCN(c5ccccc5OC(C)C)CC4)cc3C2=O)cc1 (centres unmarked) [Compound 55]
